The results in this text go back to the supplement of paper PMC12613149.

Data set [1] is described as follows: reversed-phase LC retention time (C18, 15 min MeOH gradient); higher = more hydrophobic / later elution.
A short description of data set [2]: collision cross section (TIMS, N2 drift gas) of the primary ion; higher = larger gas-phase ion size.
The mark [3] stands for this setting: ionization mode: ESI+, ion species: [M+H]+.
The mark [4] stands for this setting: ionization mode: ESI-, ion species: [M-H]-.
The mark [5] stands for this setting: ionization mode: ESI+, ion species: [M]+.

On to `C/C=C1\N(C)C(C)CC1(c1ccccc1)c1ccccc1` (centres undefined) [EDDP], for which the “reversed-phase LC retention time” value in data set [1] (setting [3]) was determined as 11.5 min. In data set [2] (setting [3]), this molecule displayed a collision cross section of 166.21 Å².

`CC(C)(C)Nc1nc(N)nc(O)n1` [2-Hydroxydesethylterbuthylazine]: the “reversed-phase LC retention time” value turned out to be 6.43 min in data set [1] (setting [3]) and 8.55 min in data set [1] (setting [4]). Further, the collision cross section in data set [2] (setting [3]) is listed as 142.3 Å²; in data set [2] (setting [4]), 140.22 Å².

With `CC(Oc1ccc(Oc2nc3ccc(Cl)cc3o2)cc1)C(=O)O` (centres undefined) [Fenoxaprop-P], the results for the “reversed-phase LC retention time” value in data set [1] (setting [3]) and in data set [1] (setting [4]) were 15.3 min and 13.9 min, respectively. The figures for the collision cross section in data set [2] (setting [3]) and in data set [2] (setting [4]) were 181.01 Å² and 189.16 Å², respectively.

Turning to `O=c1c(O[C@@H]2O[C@H](CO)[C@H](O)[C@H](O)[C@H]2O)c(-c2ccc(O)c(O)c2)oc2cc(O)cc(O)c12` [Hyperin], the “reversed-phase LC retention time” value in data set [1] (setting [4]) was found to be 7.66 min. In data set [2] (setting [4]), this molecule yielded a collision cross section of 201.31 Å².

On to `CCc1cccc(C)c1NC(=O)CS(=O)(=O)O`, for which the “reversed-phase LC retention time” value in data set [1] (setting [3]) worked out at 8.83 min; in data set [1] (setting [4]) it was 8.58 min. In addition, the results for the collision cross section in data set [2] (setting [3]) and in data set [2] (setting [4]) were 157.12 Å² and 155.17 Å², respectively.

For `O=S(=O)(O)c1ccc2ccc(S(=O)(=O)O)cc2c1` [2,7-Naphthalenedisulfonic acid], the “reversed-phase LC retention time” value in data set [1] (setting [4]) came out at 0.97 min. The collision cross section in data set [2] (setting [4]) is 159.15 Å².

`CCC(C)c1cc([N+](=O)[O-])cc([N+](=O)[O-])c1O` (centres undefined) [Dinoseb]: the “reversed-phase LC retention time” value in data set [1] (setting [4]) worked out at 12.3 min. Further, in data set [2] (setting [4]), the collision cross section turned out to be 149.61 Å².

In the case of `CCCN(CCC)CCc1cccc2c1CC(=O)N2` [Ropinirole], the “reversed-phase LC retention time” value in data set [1] (setting [3]) came to 7.95 min. In data set [2] (setting [3]), this molecule had a collision cross section of 163.51 Å².

With `CSC1=N[C@@](C)(c2ccccc2)C(=O)N1Nc1ccccc1` [Fenamidone], the “reversed-phase LC retention time” value in data set [1] (setting [3]) is 14.1 min. Also, the collision cross section in data set [2] (setting [3]) turned out to be 173.13 Å².

With `CCCCCCCCCCCC[N+](C)(C)Cc1ccccc1` [Benzyldimethyldodecylammonium], the “reversed-phase LC retention time” value in data set [1] (setting [5]) was determined as 16 min. In data set [2] (setting [5]), this molecule yielded a collision cross section of 196.05 Å².

Turning to `Cn1cnc2c1c(=O)n(CCCC(=O)O)c(=O)n2C` [1-(3-carboxypropyl)-3,7-dimethylxanthine], the “reversed-phase LC retention time” value in data set [1] (setting [3]) stood at 8.35 min. In data set [2] (setting [3]), this molecule gave a collision cross section of 154.67 Å².

As for `CC(C)NCC(O)COc1cccc2ccccc12` (centres undefined) [Propanolol], in data set [1] (setting [3]), the “reversed-phase LC retention time” value was 11.3 min. The collision cross section in data set [2] (setting [3]) is on record as 162.88 Å².

On to `CC(Oc1ccc(Oc2ncc(C(F)(F)F)cc2Cl)cc1)C(=O)O` (centres undefined) [Haloxyfop-P], for which the “reversed-phase LC retention time” value in data set [1] (setting [3]) was 15.5 min; in data set [1] (setting [4]) it was 14 min. Further, the collision cross section in data set [2] (setting [3]) amounted to 181.48 Å²; in data set [2] (setting [4]) it was 190.86 Å².

`O=c1[nH]c2c(c(=O)n1C1CCCCC1)CCC2` [Lenacil]: the “reversed-phase LC retention time” value in data set [1] (setting [3]) was 12.8 min. In data set [2] (setting [3]), the collision cross section is 157.13 Å².

Turning to `c1ccc2[nH]c(-c3cscn3)nc2c1` [Thiabendazole], in data set [1] (setting [3]), the “reversed-phase LC retention time” value is 8.08 min. This molecule came in with a collision cross section in data set [2] (setting [3]) of 138.79 Å².

For the molecule `CCCCOCCOCCOCCO` [Triethylene Glycol Monobutyl Ether], the “reversed-phase LC retention time” value in data set [1] (setting [3]) came out at 11.2 min. Also, in data set [2] (setting [3]), the collision cross section was 143.71 Å².

For `CCC[C@H]1CCCCN1` [Coniine], in data set [1] (setting [3]), the “reversed-phase LC retention time” value came to 6.79 min. In addition, in data set [2] (setting [3]), the collision cross section is 129.06 Å².

In the case of `CC(C)(C)C(O)(CCc1ccc(Cl)cc1)Cn1cncn1` (centres undefined) [Tebuconazole], the “reversed-phase LC retention time” value in data set [1] (setting [3]) amounted to 15.5 min. In data set [2] (setting [3]), this molecule yielded a collision cross section of 168.02 Å².

In the case of `C#C[C@]1(O)C=C[C@H]2[C@@H]3CCC4=CC(=O)CC[C@@H]4[C@H]3CC[C@@]21CC` [Gestoden], the “reversed-phase LC retention time” value in data set [1] (setting [3]) amounted to 14 min. Besides, in data set [2] (setting [3]), the collision cross section came to 181.55 Å².

Consider `CC[n+]1ccn(C)c1` [1-Ethyl-3-methyl-imidazolium], for which the “reversed-phase LC retention time” value in data set [1] (setting [5]) amounted to 0.99 min. The collision cross section in data set [2] (setting [5]) is given as 115.07 Å².

As for `Nc1nc(=O)c2ncn(COCC(=O)O)c2[nH]1` [Carboxy-aciclovir], the “reversed-phase LC retention time” value in data set [1] (setting [3]) stood at 2.54 min. Besides, in data set [2] (setting [3]), the collision cross section is on record as 150.15 Å².

As for `CCc1cccc(C)c1N(C(=O)CCl)C(C)COC` (centres undefined) [Metolachlor], the “reversed-phase LC retention time” value in data set [1] (setting [3]) stood at 15.1 min. For the same molecule, the collision cross section in data set [2] (setting [3]) came out at 160.17 Å².

For the molecule `CC(C)Nc1ccc(Nc2ccccc2)cc1` [N-isopropyl-N-phenyl-p-phenylenediamine], in data set [1] (setting [3]), the “reversed-phase LC retention time” value is 8.47 min. Further, in data set [2] (setting [3]), the collision cross section was found to be 171.67 Å².

As for `CCCN(CCC)CCC` [Tripropylamine], the “reversed-phase LC retention time” value in data set [1] (setting [3]) worked out at 6.72 min. The molecule also registered a collision cross section in data set [2] (setting [3]) of 131.65 Å².

On to `COc1cccc([C@@]2(O)CCCC[C@@H]2CN(C)C)c1` [Tramadol], for which, in data set [1] (setting [3]), the “reversed-phase LC retention time” value came to 9.25 min. In data set [2] (setting [3]), this molecule had a collision cross section of 160.98 Å².

Consider `COc1cc2ccc(=O)oc2c(O)c1OC` [Fraxidin], for which the “reversed-phase LC retention time” value came to 9.58 min in data set [1] (setting [3]) and 8.57 min in data set [1] (setting [4]). In addition, the collision cross section in data set [2] (setting [3]) was 143.3 Å²; in data set [2] (setting [4]), 145.19 Å².

Regarding `O=C(Nc1ccccc1)c1ccccc1SSc1ccccc1C(=O)Nc1ccccc1` [2,2'-Dithiobisbenzanilide], the “reversed-phase LC retention time” value in data set [1] (setting [3]) is 16.2 min. The collision cross section in data set [2] (setting [3]) was determined as 195.49 Å².
